Patent US20030166007A1, “Chemical proteomics” (MDS Proteomics Inc., priority 2002, published 2003)
Entries after “also recorded” stand apart in the source; their conditions may differ.

Legend:
[1] = target: T1, Hypoxanthine phosphoribosyltransferase (HPRT) (Homo sapiens, UniProt P00492); test: MTX-agarose affinity chromatography of cell lysate, MS identification; type: binding; conditions: HEK 293 lysate, lane 9
T1 construct: endogenous in cells; host or cells: HEK 293
T1 sequence (P00492 1-218): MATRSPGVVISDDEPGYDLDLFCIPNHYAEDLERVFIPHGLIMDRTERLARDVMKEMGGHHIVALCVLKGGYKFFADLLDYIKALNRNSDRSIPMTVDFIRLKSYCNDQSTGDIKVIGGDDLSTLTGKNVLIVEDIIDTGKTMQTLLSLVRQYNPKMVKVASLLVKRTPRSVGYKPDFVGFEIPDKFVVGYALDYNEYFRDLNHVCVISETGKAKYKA
Procedure: (§1) After incubation for 30 minutes at 4° C. with shaking, the lysates were clarified by centrifugation (27,000×g). In some experiments, cells were lysed using 20 strokes of a Dounce® homogenizer in the absence of detergents. […] While optimizing the protocol, however, several experimental variations were tested on cell lysates including concentration by ammonium sulfate precipitation, or removal of nucleic acid with Streptomycin sulfate. In such cases, the protein sample was desalted using a PD 10 protein-desalting column (Pharmacia), which had been pre-equilibrated in the same buffer (10 mM potassium phosphate pH 7.5)
(§2) Affinity Chromatography: The desalted lysate was loaded onto a column of pre-equilibrated MTX-agarose (Sigma, 50 μL bed volume) or sepharose 4B agarose as a negative control. The lysates were allowed to slowly flow through the matrix under gravity flow. […] Retentates from the microcons were then loaded onto SDS-PAGE 4%-15% gradient mini gels (Bio-Rad). […]
(§3) The peptides were then separated by reverse phase chromatography on C18 resin and directly injected into a mass spectrometer using an automated sample-loading device from 96 well plates. […] The spectra generated were analyzed on a custom-built multi-node server platform (RADARS, ProteoMetrics), which uses two database searching programs, Sonar (ProteoMetrics) and Mascot (Matrix Sciences). […]

Nudix 5 = target: T2, Nudix 5 (Homo sapiens, UniProt Q9UKK9); test: as above; type: binding; conditions: HEK 293 lysate
T2 construct: endogenous in cells; host or cells: HEK 293
Procedure: as §1, §2, §3

## CN(Cc1cnc2nc(N)nc(N)c2n1)c1ccc(C(=O)N[C@@H](CCC(=O)O)C(=O)O)cc1 [Methotrexate]
[1]
  Protein identified by Mass Spec.; New MTX interactor: identified in the pull down in lane 9
[1]; listed as MTX
  Protein identified by Mass Spec.; New MTX interactor: ✓
Nudix 5
  Association with the Methotrexate matrix: consistently found; also recorded: direct interactions with the Methotrexate probe
